Reference: patent US20190151229A1, “USE OF AN ESSENTIAL OIL OF EVERLASTING FLOWER IN ORDER TO INCREASE OR RESTORE TACTILE PERCEPTION” (LABORATOIRES M&L, priority 2016, published 2019)

System: human sensory neurons
Test: Effect on neurite growth in co-culture of human sensory neurons and keratinocytes
Type: cell-based
Settings: NGF at 50 ng/ml, 6 days, vs control medium, p<0.05
Description: Sensory neurons are derived from iPS cells (induced Pluripotent Stem cells) which are themselves obtained from human fibroblasts. The iPSs were seeded into six-well plates coated with a thin layer of Matrigel® (Corning) in a proportion of 250 000 cells per well in a differentiation medium consisting of DMEM-F12 (Panbiotech) supplemented with 10% of Knockout Serum Replacement (KSR, Life technologies), 5 μM of CHIR 99021 (Tocris), 0.1 μM of retinoic acid (Sigma), 1 μg/ml of EPO (Erythropoietin; Peprotech), a cocktail of central differentiation pathway inhibitors and 1% of PS antibiotics (Penicilin-Streptomycin; Panbiotech). The cells were maintained in culture for 6 days at 37° C. and 5% CO2. The culture medium was changed every 2 days. Under these culture conditions, the iPSs differentiate into human sensory neurons.
At this stage, the cells were dissociated using accutase (Sigma Aldrich) for 10 minutes at 37° C. The reaction was stopped by adding culture medium. The cell suspension was centrifuged for 5 minutes at 1200 rpm. […]
Twenty photographs per culture well were taken with the automatic microscope (InCell 2000; GE Healthcare) at a ×20 magnification and the cell bodies of the sensory neurons were counted. […]

NGF: reference molecule; nerve growth factor, naturally present in the epithelium, known to stimulate neurite extension in vitro
increase in the length of the projections of the human sensory neurons: +22.8%
